Our source for the inhibition of growth values is ChEMBL document CHEMBL3861999, “Investigation of C-5 alkynyl (alkynyloxy or hydroxymethyl) and/or N-3 propynyl substituted pyrimidine nucleoside analogs as a new class of antimicrobial agents” (Bioorg Med Chem, 2016).

Holding throughout (format): functional
Common to all, as to details: variant bovis BCG, 144 h, read-out: GI

In assay [1] the test system is Mycobacterium tuberculosis. Put plainly: Growth inhibition of Mycobacterium bovis BCG at 200 ug/ml after 6 days by microplate alamar blue assay. On the technique in general: Resazurin is reduced to fluorescent resorufin, in cell work by metabolically active cells.
Assay [2] relates to Mycobacterium tuberculosis. Briefly: Growth inhibition of Mycobacterium bovis BCG at 1 ug/ml after 6 days by microplate alamar blue assay.
Assay [3] relates to Mycobacterium tuberculosis. Briefly: Growth inhibition of Mycobacterium bovis BCG at 0.5 ug/ml after 6 days by microplate alamar blue assay.

As for `C#CCOc1cn([C@@H]2O[C@H](CO)[C@@H](O)[C@H]2F)c(=O)[nH]c1=O`, in assay [1], the inhibition of growth at 200 µg/mL was determined as 98%.

With `C#CCOc1cn([C@@H]2O[C@H](CO)[C@@H](O)[C@H]2F)c(=O)n(CC#C)c1=O`, in assay [1], the inhibition of growth at 200 µg/mL was determined as 34%.

As for `NNC(=O)c1ccncc1` [ISONIAZID], the inhibition of growth at 1 µg/mL in assay [2] was found to be 100%.

Take `CO[C@H]1/C=C/O[C@@]2(C)Oc3c(C)c(O)c4c(O)c(c(/C=N/N5CCN(C)CC5)c(O)c4c3C2=O)NC(=O)/C(C)=C\C=C\[C@H](C)[C@H](O)[C@@H](C)[C@@H](O)[C@@H](C)[C@H](OC(C)=O)[C@@H]1C` [RIFAMPIN]: the inhibition of growth at 0.5 µg/mL in assay [3] was found to be 100%.
